The numbers were not newly measured in patent US20070098750A1, “PESTICIDAL COMPOSITIONS CONTAINING ISOPROPYL MYRISTATE AND ANALOGS OF SAME AS A SYNERGIST FOR PLANT ESSENTIAL OILS” (EcoSmart Technologies, Inc., priority 2005, published 2007), which cites them from elsewhere.

As to `CCCCOCCOCCOCc1cc2c(cc1CCC)OCO2` [PBO, piperonyl butoxide], under “even at the lowest doses, 30 mg/kg/day”, the Chronic toxicity finding entry is “increased liver weights”. For the same molecule, the “Carcinogenicity finding in animal studies” value (even treatments as low as 1.2%) is listed as “hepatocellular carcinomas”.
